Consider 2 compounds from PMC11438743, “High-dose colistin pharmacokinetics in critically ill patients receiving continuous renal replacement therapy” (Annals of Intensive Care, 2024).

Where two headings read alike, the source gives them in different places. Some results are limits rather than exact numbers.

Data set [1] has as its system CR-Acinetobacter baumannii ventilator associated pneumonia (VAP). Kind of data set: Clinical outcome of patients treated with high-dose intravenous colistimethate. As to conditions: 20 patients, IV CMS 9 MIU LD then 6.75 MIU q12 in combination therapy, no control group. In kind it is in vivo, human.
For data set [2] the following is noted: cited from earlier work. On the procedure: Several variables may influence colistin plasma concentration as demographic (e.g. body mass), clinical (e.g. kidney function) and therapeutic (e.g. RRT modality, membrane, mode and dose) variables. In order to account for CRRT removal of colistin, the 2019 international guidelines for the optimal use of polymyxins recommend administering a daily dose of 440 colistin base activity (CBA), corresponding to ≈ 13,3 MIU or ≈ 1173 mg of CMS in patients who are exposed to this extracorporeal organ support. […] The authors, documenting a 62% ClCVVHDF, formulated a pharmacokinetic model where a LD of 12 MIU followed by a maintenance dosage of 6.75–7.5 MIU q12 would be needed to achieve a target Css, avg of 2–3 mcg/mL [31]. […] Further, in the latest and largest investigation on this topic, ten critically ill patients requiring CRRT and receiving CMS 3 MIU q8 were prospectively studied.

For data set [3] the following is noted: in vivo, iv.
Experimental: Clinical and demographic data were recorded upon enrolment. […] Renal recovery was defined as a reduction in peak AKI-KDIGO stage [21] and was evaluated in patients without chronic kidney disease.
A short description of data set [4]: Colistin plasma pharmacokinetics at steady state in critically ill patients undergoing CRRT (CVVHDF). In kind it is in vivo, human. As to conditions: median [IQR]. On the procedure:
According to current guidelines, CMS high dosage (HD) was administered intravenously (IV) at loading dose (LD) of 9 MIU […] over 30-min, followed by 6.75 MIU over 30-min q12. On day 4, at steady state, pharmacokinetic analyses of the study group were performed. CRRT was delivered as continuous veno-venous hemodiafiltration (CVVHDF) with Prismaflex ST150 (Gambro AB, Lund, Sweden) using the AN69 ST membrane (acrylonitrile-sodium-methyl sulfonate surface treated; surface area, 1.5m2) and regional citrate anticoagulation. Dose intensity was prescribed according to current guidelines, and with a ratio of dialysate to replacement fluid of 1:1. The CRRT circuit and membrane were changed every 72 h, as standard operating procedure in our center.
Although colistin concentration-time profiles are stable just on day 3, blood samples were collected after the seventh dose (on day 4 of treatment) at T0 (immediately before the initiation of CMS infusion) and 1 h, 2 h, 4 h, 6 h, 8 h, 10 h and 12 h from the start of CMS infusion. First order kinetic determined pharmacokinetic parameters; maximum and minimum concentrations (Cmax, Cmin) were directly obtained from observed peak and trough concentrations. The 0–12 h area under the time–concentration curve (AUC0–12 ) was determined by the linear trapezoidal rule. Colistin AUC0–24 was calculated as AUC0–12 × 2. The average steady-state plasma concentration (Css, avg) was obtained from the ratio of colistin AUC 0–24 above T (i.e. the dosage interval). In all patients, distribution volume (Vd), drug clearance (CL), and elimination half-life (t1/2 ) were calculated after a single 6.75 MIU intravenous dose at steady state. According to current guidelines, the recommended PK/PD therapeutic target has been considered the area under the plasma concentration- time curve across 24 h at steady state above MIC (fAUCss 0−24 hr) of ~ […], that equates to a target Css, avgof ~ 2 mg/L of the total drug against susceptible strains (MIC ≤ 2 mcg/mL). […] Colistin and CMS concentration were measured using and modifying the Gobin assay.

The subject of another data set is Acinetobacter spp. Kind of data set: Colistin MIC of BAL isolates (Micronaut AST BMD, VITEK 2 AST-N397, EUCAST v11.0). As to conditions: BAL Acinetobacter spp. isolates of 20 patients; median [interquartile range]. The format is cell-based. On the procedure: Bacterial isolates were identified by using matrix-assisted laser desorption ionization-time of flight mass spectrometry (MALDI-TOF MS). MICs were determined by a Micronaut AST system-based BMD, VITEK 2 AST-N397 card, according to the manufacturer’s instructions. EUCAST (version 11.0, 2021) clinical breakpoints were used to interpret MICs. In pneumonia episodes, microbiological evidence of bacterial infection was achieved by processing respiratory samples both for conventional and fast-microbiology panel testing. […] Semiquantitative culture results were obtained using calibrated loops to inoculate and streak samples on both selective/differential.

For data set [5] the following is noted: plasmatic absorption after aerosolization of either 3 MIU and 5 MIU CMS; cited from earlier work. From the text:
In our study, all patients underwent CVVHDF with a similar daily dose and since this technique uses diffusion across a concentration gradient (e.g. hemodialysis) in addition to hemofiltration across a pressure gradient, the equivalences of the two modes with respect to CMS/colistin clearance are unknown. Additionally none of our patients had residual renal function and almost all were also receiving high dose nebulized CMS (5 MIU q8), delivered through vibrating mesh nebulizers, potentially contributing to the higher than expected steady-state colistin levels. In our study we cannot asc ...

Where [6] appears, read: colistin, 20 patients on CVVHDF (AN69 ST membrane), steady state.
The mark [7] stands for this setting: eight critically ill patients receiving CRRT, CMS 4.5 MIU q12.
Where [8] appears, read: five patients on CRRT, CMS until 2 MIU q8.
The mark [9] stands for this setting: ten critically ill patients requiring CRRT, CMS 3 MIU q8.

For the compound colistimethate [CMS], the “Death in ICU” value in data set [1] (18 with nebulized CMS) is listed as 15 (75) count (percentage). In addition, the Treatment failure in data set [1] is 14 (70) count (percentage). Also, in data set [2] (human, in vivo), the “CRRT clearance as share of total clearance” value was 41%; the “median Cmax” value is 12.6 mg/L; the “risk to overcome the safety limit of Css, avg ≥ 4 mcg/mL” value is “less than 30%”; the “target attainment rate (Css, avg ≥ 2 mcg/mL)” value is listed as 80%. Moreover, in data set [3], the “Renal Recovery” value is listed as 6 (37.5) count (percentage).
`CC[C@H](C)CCCCC(=O)N[C@@H](CCN)C(=O)N[C@H](C(=O)N[C@@H](CCN)C(=O)N[C@H]1CCNC(=O)[C@H]([C@@H](C)O)NC(=O)[C@H](CCN)NC(=O)[C@H](CCN)NC(=O)[C@H](CC(C)C)NC(=O)[C@@H](CC(C)C)NC(=O)[C@H](CCN)NC1=O)[C@@H](C)O` (mixture of isomers) [Colistin, Colistin (polymixin E)]: in data set [4] (setting [6]), the “%E (% filter extraction)” value is 17.65 [14.98–21.67] % and the CLCRRT was 1.21 [0.88–1.35] L/h. This compound registered a Vd in data set [4] (human, plasma, colistin, 20 patients on CVVHDF, after a single 6.75 MIU IV CMS dose at steady state) of 126 L. In data set [4] (human, plasma, colistin, 20 patients on CVVHDF, after a single 6.75 MIU IV CMS dose at steady state, one-compartment, first order), this compound showed a half-life of 1250 min. In addition, the clearance in data set [4] (human, plasma, colistin, 20 patients on CVVHDF, after the seventh 6.75 MIU IV CMS dose at steady state, read-out: CLTOT (converted)) is 34.7 mL/min. The peak level in data set [4] (human, plasma colistin, 20 critically ill anuric patients on CVVHDF (AN69 ST, 32.5 mL/kg/h), IV CMS 9 MIU LD then 6.75 MIU q12, after seventh dose (day 4, steady state), observed peak, modified Gobin assay) (Cmax) was 16600 ng/mL. Moreover, the AUC(0-t) in data set [4] (human, plasma colistin, 20 patients on CVVHDF, IV CMS 6.75 MIU q12 after 9 MIU LD, day 4, AUC0-12 (linear trapezoidal) x 2, read-out: AUC0-24) was found to be 194 µg·h/mL. Further, the level at 96 h in data set [4] (human, plasma colistin, 20 patients on CVVHDF, IV CMS 9 MIU LD then 6.75 MIU q12, after seventh dose (day 4), observed trough, read-out: Cmin) was 3930 ng/mL. In addition, the “Css, avg (average steady-state concentration)” value in data set [4] (plasma colistin, 20 patients on CVVHDF, IV CMS 9 MIU LD then 6.75 MIU q12, day 4, AUC0-24 over dosage interval) is 8.07 [7.1–8.69] mcg/mL. In addition, the “Css, avg in patients who recovered renal function” value in data set [4] (plasma colistin, subgroup with renal recovery, p = 0.026 vs no renal recovery) was 7.48 [6.35, 8.05] mcg/mL. Moreover, the “Css, avg in patients that had no renal recovery” value in data set [4] (plasma colistin, subgroup without renal recovery, p = 0.026 vs renal recovery) is 8.31 [7.35, 9.13] mcg/mL. Further, the fAUC0-24 in data set [4] (unbound colistin, unbound fraction derived from literature, 20 patients on CVVHDF, IV CMS 6.75 MIU q12, day 4) is 58.16 [51.18–62.6] mcg h/mL. In data set [2] (setting [7]), the ClCVVHDF was 62% and the “median Cmax” value is 1.72 mg/L. In addition, in data set [2] (setting [8]), the CLHDF result is “above 4 L/h”; the “Css, avg” value was not above 1 µg/mL; the membrane extraction ratio was 68%. For the same compound, the steady-state concentrations entry in data set [2] (high CMS daily administration schedules during CRRT, especially with residual renal function and prolonged course) is listed as “above 10 mcg/mL”. In data set [2] (setting [9]), the AUC0-24 is 569 [404–741] mcg h/mL; the “CRRT clearance as share of total clearance” value is listed as 28%; the “Css, avg” value was 4.43 [3.01–7.24] mcg/mL. Besides, the effluent clearance share entry in data set [2] (three patients on CRRT) was “about 40%”. The MIC with Acinetobacter spp. is 1[1-1.5] mcg/mL. In addition, the “colistin concentrations after aerosolization” value in data set [5] is less than 1 µg/mL.
